{"source": "paper PMC6979384", "about": "“Characterization of the plant homeodomain (PHD) reader family for their histone tail interactions” (Epigenetics & Chromatin, 2020)", "assay_in_all_cases": "Histone peptide microarray", "format_in_all_cases": "binding, human", "conditions_in_all_cases": "histone peptide array, GST-tagged reader", "key": {"AIRE (PP)": {"system": "AIRE (PP)", "method_in_brief": "(§1)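 Recombinant GST-PHD protein at 0.5 μM; 293-member modified histone peptide array; signals averaged from four repeats ± SD.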"}, "BAZ2B": {"system": "BAZ2B", "method_in_brief": "as §1"}, "BPTF (PB)": {"system": "BPTF (PB)", "method_in_brief": "as §1"}, "CHD4 (PPCC)": {"system": "CHD4 (PPCC)", "method_in_brief": "as §1"}, "CHD5 (PCC)": {"system": "CHD5 (PCC)", "method_in_brief": "as §1"}, "CHD5 (PPCC)": {"system": "CHD5 (PPCC)", "method_in_brief": "as §1"}, "DIDO1": {"system": "DIDO1", "method_in_brief": "as §1"}, "DPF2 (PPC2W2)": {"system": "DPF2 (PPC2W2)", "method_in_brief": "as §1"}, "ING1": {"system": "ING1", "method_in_brief": "as §1"}, "ING2": {"system": "ING2", "method_in_brief": "as §1"}, "ING3": {"system": "ING3", "method_in_brief": "as §1"}, "ING4": {"system": "ING4", "method_in_brief": "as §1"}, "ING5": {"system": "ING5", "method_in_brief": "as §1"}, "KDM4C (TTP)": {"system": "KDM4C (TTP)", "method_in_brief": "as §1"}, "KDM5A (1)": {"system": "KDM5A (1)", "method_in_brief": "as §1"}, "KDM5A (3)": {"system": "KDM5A (3)", "method_in_brief": "as §1"}, "KDM5B (1)": {"system": "KDM5B (1)", "method_in_brief": "as §1"}, "KDM5B (3)": {"system": "KDM5B (3)", "method_in_brief": "as §1"}, "KDM7A": {"system": "KDM7A", "method_in_brief": "as §1"}, "MLL5": {"system": "MLL5", "method_in_brief": "as §1"}, "MORC3 (CW)": {"system": "MORC3 (CW)", "method_in_brief": "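GST-tagged PHD finger readers were expressed, purified and applied at 0.5 μM to a microarray of 293 synthetic histone peptides carrying single or combinatorial PTMs, using an optimized protocol. Binding signals are averages with standard deviation from 4 replicates.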"}, "PHF13": {"system": "PHF13", "method_in_brief": "as §1"}, "PHF21A": {"system": "PHF21A", "method_in_brief": "as §1"}, "PHF23": {"system": "PHF23", "method_in_brief": "as §1"}, "PHF2": {"system": "PHF2", "method_in_brief": "as §1"}, "PHF8": {"system": "PHF8", "method_in_brief": "as §1"}, "PHRF1 (RP)": {"system": "PHRF1 (RP)", "method_in_brief": "as §1"}, "RAG2": {"system": "RAG2", "method_in_brief": "as §1"}, "SP140L": {"system": "SP140L", "method_in_brief": "as §1"}, "TAF3": {"system": "TAF3", "method_in_brief": "as §1"}, "TRIM66 (PB)": {"system": "TRIM66 (PB)", "method_in_brief": "as §1"}, "[1]": {"conditions": "PB = PHD + Bromodomain, arrays performed twice, n of 4"}, "[2]": {"conditions": "PPCC = Dual PHD + Dual Chromodomain, arrays performed twice, n of 4"}, "[3]": {"conditions": "sheet \"Array Heatmap\", total n = 4"}}, "data": [{"substance": "H3.3 (27-45): H3.3 27-45 (KSAPSTGGVKKPHRYRPGT; UniProt P84243 28-46, looked up, fragment)", "values": [{"measurement": "Array Heatmap signal, AIRE (PP)", "setting": "AIRE (PP); arrays performed twice, n of 4", "result": 0.4994}, {"measurement": "Array Heatmap signal, BAZ2B", "setting": "BAZ2B; arrays performed twice, n of 4", "result": 0.4692}, {"measurement": "Array Heatmap signal, BPTF (PB)", "setting": "BPTF (PB); [1]", "result": 0.34}, {"measurement": "Array Heatmap signal, CHD4 (PPCC)", "setting": "CHD4 (PPCC); [2]", "result": 0.5867}, {"measurement": "Array Heatmap signal, CHD5 (PCC)", "setting": "CHD5 (PCC); PCC = PHD + Dual Chromodomain, arrays performed twice, n of 4", "result": 0.7947}, {"measurement": "Array Heatmap signal, CHD5 (PPCC)", "setting": "CHD5 (PPCC); [2]", "result": 0.5478}, {"measurement": "Array Heatmap signal, DIDO1", "setting": "DIDO1; arrays performed twice, n of 4", "result": 0.7133}, {"measurement": "Array Heatmap signal, DPF2 (PPC2W2)", "setting": "DPF2 (PPC2W2); PPC2W2 = Dual PHD + C2W2-type Zn-finger, arrays performed twice, n of 4", "result": 0.6084}, {"measurement": "Array Heatmap signal, ING1", "setting": "ING1; arrays performed twice, n of 4", "result": 0.4846}, {"measurement": "Array Heatmap signal, ING2", "setting": "ING2; arrays performed twice, n of 4", "result": 0.588}, {"measurement": "Array Heatmap signal, ING3", "setting": "ING3; arrays performed twice, n of 4", "result": 0.4546}, {"measurement": "Array Heatmap signal, ING4", "setting": "ING4; arrays performed twice, n of 4", "result": 0.4566}, {"measurement": "Array Heatmap signal, ING5", "setting": "ING5; arrays performed twice, n of 4", "result": 0.3478}, {"measurement": "Array Heatmap signal, KDM4C (TTP)", "setting": "KDM4C (TTP); TTP = Tandem Tudor domain + PHD, arrays performed twice, n of 4", "result": 0.5199}, {"measurement": "Array Heatmap signal, KDM5A (1)", "setting": "KDM5A (1); arrays performed twice, n of 4", "result": 0.4676}, {"measurement": "Array Heatmap signal, KDM5A (3)", "setting": "KDM5A (3); arrays performed twice, n of 4", "result": 0.405}, {"measurement": "Array Heatmap signal, KDM5B (1)", "setting": "KDM5B (1); arrays performed twice, n of 4", "result": 0.6276}, {"measurement": "Array Heatmap signal, KDM5B (3)", "setting": "KDM5B (3); arrays performed twice, n of 4", "result": 0.4762}, {"measurement": "Array Heatmap signal, KDM7A", "setting": "KDM7A; arrays performed twice, n of 4", "result": 0.4316}, {"measurement": "Array Heatmap signal, MLL5", "setting": "MLL5; arrays performed twice, n of 4", "result": 0.5451}, {"measurement": "Array Heatmap signal, MORC3 (CW)", "setting": "MORC3 (CW); CW = CW-type Zn-finger, arrays performed twice, n of 4", "result": 0.3459}, {"measurement": "Array Heatmap signal, PHF13", "setting": "PHF13; arrays performed twice, n of 4", "result": 0.5824}, {"measurement": "Array Heatmap signal, PHF21A", "setting": "PHF21A; arrays performed twice, n of 4", "result": 0.4761}, {"measurement": "Array Heatmap signal, PHF23", "setting": "PHF23; arrays performed twice, n of 4", "result": 0.5188}, {"measurement": "Array Heatmap signal, PHF2", "setting": "PHF2; arrays performed twice, n of 4", "result": 0.4329}, {"measurement": "Array Heatmap signal, PHF8", "setting": "PHF8; arrays performed twice, n of 4", "result": 0.3699}, {"measurement": "Array Heatmap signal, PHRF1 (RP)", "setting": "PHRF1 (RP); arrays performed twice, n of 4", "result": 0.4032}, {"measurement": "Array Heatmap signal, RAG2", "setting": "RAG2; arrays performed twice, n of 4", "result": 0.2569}, {"measurement": "Array Heatmap signal, SP140L", "setting": "SP140L; arrays performed twice, n of 4", "result": 0.3705}, {"measurement": "Array Heatmap signal, TAF3", "setting": "TAF3; arrays performed twice, n of 4", "result": 0.2584}, {"measurement": "Array Heatmap signal, TRIM66 (PB)", "setting": "TRIM66 (PB); [1]", "result": 0.5678}]}, {"substance": "H3.3K18ac + K23ac + K27ac + S28p: H3.3 15-34", "values": [{"measurement": "Array Heatmap signal, AIRE (PP)", "setting": "AIRE (PP); [3]", "result": 0.4033}, {"measurement": "Array Heatmap signal, BAZ2B", "setting": "BAZ2B; [3]", "result": 0.4455}, {"measurement": "Array Heatmap signal, BPTF (PB)", "setting": "BPTF (PB); [3]", "result": 0.3427}, {"measurement": "Array Heatmap signal, CHD4 (PPCC)", "setting": "CHD4 (PPCC); [3]", "result": 0.5345}, {"measurement": "Array Heatmap signal, CHD5 (PCC)", "setting": "CHD5 (PCC); [3]", "result": 0.7419}, {"measurement": "Array Heatmap signal, CHD5 (PPCC)", "setting": "CHD5 (PPCC); [3]", "result": 0.5304}, {"measurement": "Array Heatmap signal, DIDO1", "setting": "DIDO1; [3]", "result": 0.747}, {"measurement": "Array Heatmap signal, DPF2 (PPC2W2)", "setting": "DPF2 (PPC2W2); [3]", "result": 0.6362}, {"measurement": "Array Heatmap signal, ING1", "setting": "ING1; [3]", "result": 0.5496}, {"measurement": "Array Heatmap signal, ING2", "setting": "ING2; [3]", "result": 0.6018}, {"measurement": "Array Heatmap signal, ING3", "setting": "ING3; [3]", "result": 0.4727}, {"measurement": "Array Heatmap signal, ING4", "setting": "ING4; [3]", "result": 0.4374}, {"measurement": "Array Heatmap signal, ING5", "setting": "ING5; [3]", "result": 0.3405}, {"measurement": "Array Heatmap signal, KDM4C (TTP)", "setting": "KDM4C (TTP); [3]", "result": 0.4483}, {"measurement": "Array Heatmap signal, KDM5A (1)", "setting": "KDM5A (1); [3]", "result": 0.4461}, {"measurement": "Array Heatmap signal, KDM5A (3)", "setting": "KDM5A (3); [3]", "result": 0.436}, {"measurement": "Array Heatmap signal, KDM5B (1)", "setting": "KDM5B (1); [3]", "result": 0.64}, {"measurement": "Array Heatmap signal, KDM5B (3)", "setting": "KDM5B (3); [3]", "result": 0.4567}, {"measurement": "Array Heatmap signal, KDM7A", "setting": "KDM7A; [3]", "result": 0.3117}, {"measurement": "Array Heatmap signal, MLL5", "setting": "MLL5; [3]", "result": 0.5576}, {"measurement": "Array Heatmap signal, MORC3 (CW)", "setting": "MORC3 (CW); [3]", "result": 0.3503}, {"measurement": "Array Heatmap signal, PHF13", "setting": "PHF13; [3]", "result": 0.5819}, {"measurement": "Array Heatmap signal, PHF21A", "setting": "PHF21A; [3]", "result": 0.4374}, {"measurement": "Array Heatmap signal, PHF23", "setting": "PHF23; [3]", "result": 0.5591}, {"measurement": "Array Heatmap signal, PHF2", "setting": "PHF2; [3]", "result": 0.5396}, {"measurement": "Array Heatmap signal, PHF8", "setting": "PHF8; [3]", "result": 0.3574}, {"measurement": "Array Heatmap signal, PHRF1 (RP)", "setting": "PHRF1 (RP); [3]", "result": 0.4303}, {"measurement": "Array Heatmap signal, RAG2", "setting": "RAG2; [3]", "result": 0.2492}, {"measurement": "Array Heatmap signal, SP140L", "setting": "SP140L; [3]", "result": 0.326}, {"measurement": "Array Heatmap signal, TAF3", "setting": "TAF3; [3]", "result": 0.2571}, {"measurement": "Array Heatmap signal, TRIM66 (PB)", "setting": "TRIM66 (PB); [3]", "result": 0.5994}]}]}
